# Experimental data as given in patent EP2647374A1, “Nutritional compositions including beta-hydroxy-beta-methylbutyrate for regulating transcription factors” (Abbott Laboratories, Inc., priority 2012, dated 2013).
# Key:
# L6 myotubes [1] = assay: Protein degradation assay ([3H]Tyr release) in dexamethasone-treated myotubes; assay type: cell-based, rat; conditions: pre-incubation HMB 25 µM or Leu 10 mM 48 hours, then 48 hours with dexamethasone 5 µM
# Description: (§1) Cell culture. The L6.C11 rat skeletal muscle myoblast line (ECACC No. 92102119) was grown in DMEM containing 10% (v/v) FCS, 2 mmol/l Glutamine plus 100 units/ml penicillin and 0.1 mg/ml streptomycin (Sigma) in an atmosphere of air/CO2 (95:5) and maintained at subconfluent densities in growth media. Cells were differentiated to myotubes by exchanging the growth medium for a differentiation medium consisting of DMEM containing 2% (v/v) FCS for 3-4 days (>50% fusion into multinucleated myotubes).
# (§2) Protein synthesis and degradation assays. […] At the completion of the labeling period, cultures were rinsed three times with PBS, cells were lysed with sodium desoxycholate 0.1%/NaOH 0.1 M and protein was precipitated with cold 10% TCA in PBS overnight, rinsed once with cold 10% TCA, solubilized in NaOH 0.5 M, neutralized with HCl 0.5 M and mixed with scintillation fluid, and radioactivity was determined using a scintillation counter. […] Degradation rates were determined according to Hong & Forsberg, 1995.
# To study the effects of HMB and Leu on protein degradation induced by dexamethasone, L6 differentiated myotubes were first differentiated to myotubes for 3 days in 2% FBS, and then the medium was changed to 10% FBS for the remainder of the experiment. […] After the incubation, protein degradation for each condition was calculated. […] Results are expressed as mean ± SEM of six independent experiments.
# mTOR = assay: Western blot of phospho-mTOR vs total mTOR in L6 myotubes; assay type: cell-based, rat; conditions: basal, without dexamethasone; HMB 25 µM or Leu 10 mM, 30 minutes
# Description: (§3) Protein phosphorylation analysis. L6 myotubes were incubated with HMB or Leu in the absence or presence of dexamethasone for 30 minutes. After treatment, plates were flash frozen in liquid nitrogen and were scraped with 50 µl/60 mm/plate of cold 30 mmol/L Tris-HCl pH 7.4, 25 mmol/L NaCl, 1% (v/v) Triton X-100, 0.1% SDS, 10 mmol/L sodium fluoride, 10 mmol/L sodium pyrophosphate, 1 mmol/L sodium orthovanadate, 1 mmol/L EGTA, 20 nmol/L okadaic acid, 10 µg/ml aprotinin, 10 µg/ml leupeptin, 10 µg/ml pepstatin. After 10 minutes on ice, extracts were centrifuged at 13000 g for 10 minutes at 4°C. Protein concentration from the supernatants was measured using the Bio-Rad Protein Assay. […]
# (§4) L6 Myoblasts were differentiated to myotubes for 3 days in 2% FBS. […] Cells were lysed in phosphorylation buffer and analyzed by Western blot using an anti-phospho PKB/Akt antibody (FIG. 3A), anti-phospho mTOR antibody (FIG. 3B), or anti-atrogin-1 antibody (FIG. 3C). […] The lower panels of each of FIGS. 3A-3C show densitometric quantification of: phospho-PKB/total PKB protein abundance (FIG. 3A); phospho-mTOR/total mTOR protein abundance (FIG. 3B); or atrogin-1 protein abundance using Histone H3 (FIG. 3C) as a reference control. Results are expressed as means ± SEM of four independent experiments.
# UbC promoter = assay: pGL3-UbC luciferase reporter assay in L6 myotubes; assay type: cell-based, rat; conditions: pre-treatment HMB 25 µM or Leu 10 mM 48 hours, then dexamethasone 5 µM 48 hours
# Source text: (§5) Reporter gene constructs. For the analysis of rat Ubiquitin (UbC) promoter, a 417 bp fragment of 417 bp flanking the transcription start point was amplified from rat genomic DNA. This fragment was similar to those that have been characterized for the human and rat promoters. The sequences of all constructs were verified by automated DNA sequencing. The Cignal FOXO Reporter (luc) kit, CCS-1022L, was provided by SABiosciences and contains a mixture of inducible FOXO-responsive firefly luciferase construct and constitutively expressing Renilla luciferase construct (40:1).
# (§6) DNA transfection assays. For transfection experiments, cells were used at 80-90% confluence. […] Luciferase activity was determined using standard reagents (Dual Luciferase method, Promega) in a luminometer (Sirius L, Berthold Technologies, Bad Wildbad, Germany) and results were standardized for Renilla luciferase activity. […] To allow comparison of the expression patterns, the data were expressed as relative changes in luciferase activity and were normalized to a value of 100%.
# Additionally, the effect of HMB and Leu on UbC promoter implicated in protein degradation induced by dexamethasone was analyzed. […] Results are expressed as means ± SEM of six independent experiments.
# PKB/Akt = assay: Western blot of phospho-PKB/Akt vs total PKB/Akt in L6 myotubes; assay type: cell-based, rat; conditions: basal, without dexamethasone; HMB 25 µM or Leu 10 mM, 30 minutes
# Description: as §3, §4
# FOXO3a = assay: Western blot of FOXO3a in nuclear extracts of L6 cells (Histone H3 reference); assay type: cell-based, rat
# Description: Preparation of nuclear extracts. Nuclear extracts from L6 cells were prepared following Bhavsar et al. Protein concentration was measured in nuclear extracts using the Bio-Rad Protein Assay kit. Aliquots of the extracts (40 µg) were resolved by 10% SDS-PAGE and analyzed by immunoblotting using a 1:1000 dilution of polyclonal anti-FOXO3a or anti-Histone H3 antibodies. The antigen-antibody complexes were detected with HRP-conjugated secondary antibodies using a chemiluminescence detection system (Bio-Rad).
# To address whether the down-regulation of atrogin-1 in HMB- pretreated cells was accompanied by an underlying regulation of the FOXO transcription factor, the total FOXO expression (monitored by using FOXO-luciferase reporter gene activity) and the amount FOXO3a transcription factor in the nucleus were analyzed. L6 Myoblasts were differentiated to myotubes for 3 days in 2% FBS. After the differentiation process, medium was changed to 10% FBS for the remainder of the experiment. Myotubes were incubated in the presence or absence of HMB (25 µM) or Leu (10 mM) for 48 hours. […]
# Further, L6 untransfected cells were treated as above, nuclear extracts were obtained as described in the material and methods section and analyzed by Western blot using an anti-FOXO3 antibody. […] Results are expressed as means ± SEM of four independent experiments.
# L6 myotubes [2] = assay: Protein synthesis assay ([3H]Tyr incorporation) in dexamethasone-treated myotubes; assay type: cell-based, rat; conditions: HMB 25 µM or Leu 10 mM, 2 hours plus 1 hour labeling, dexamethasone 5 µM
# Description: as §1, §2
# Particularly, L6 myotubes were treated with HMB (25 µM) or Leu (10 mM) for 2 hours in the presence or absence of dexamethasone (5 µM). […] After the incubation, protein synthesis for each condition was calculated. […] Results are expressed as means ± SEM of six independent experiments.
# FOXO = assay: FOXO-responsive luciferase reporter assay in L6 cells; assay type: cell-based, rat
# Source text: as §5, §6
# To address whether the down-regulation of atrogin-1 in HMB- pretreated cells was accompanied by an underlying regulation of the FOXO transcription factor, the total FOXO expression (monitored by using FOXO-luciferase reporter gene activity) and the amount FOXO3a transcription factor in the nucleus were analyzed. […]
# ERK1/2 = assay: Western blot of phospho-ERK1/2 vs total ERK1/2 in L6 myotubes; assay type: cell-based, rat; conditions: HMB 25 µM or Leu 10 mM, 30 minutes
# Description: Protein phosphorylation analysis. L6 myotubes were incubated with HMB or Leu in the absence or presence of dexamethasone for 30 minutes. After treatment, plates were flash frozen in liquid nitrogen and were scraped with 50 µl/60 mm/plate of cold 30 mmol/L Tris-HCl pH 7.4, 25 mmol/L NaCl, 1% (v/v) Triton X-100, 0.1% SDS, 10 mmol/L sodium fluoride, 10 mmol/L sodium pyrophosphate, 1 mmol/L sodium orthovanadate, 1 mmol/L EGTA, 20 nmol/L okadaic acid, 10 µg/ml aprotinin, 10 µg/ml leupeptin, 10 µg/ml pepstatin. After 10 minutes on ice, extracts were centrifuged at 13000 g for 10 minutes at 4°C. Protein concentration from the supernatants was measured using the Bio-Rad Protein Assay. Proteins (25-40 µg) were separated by SDS-PAGE and immunoblotted with selected antibodies; the immunoblots were developed by chemiluminescence detection.
# Taking into account that phosphorylation of FOXO3a by ERK is a required step for FOXO3a ubiquitination and subsequent proteosomal degradation of this transcription factor in the cytoplasm, the effect of HMB and Leu on ERK activation was also analyzed. Specifically, L6 Myoblasts were differentiated to myotubes for 3 days in 2% FBS. […] Cells were lysed in phosphorylation buffer and analyzed by Western blot using an anti-phospho ERK1/2 antibody. […] Results are expressed as means ± SEM of four independent experiments.
# atrogin-1 = assay: cells; assay type: cell-based; conditions: Rattus norvegicus, L6, 48 h, read-out: increase in amount of atrogin-1
# Description: Atrogin-1 analysis. L6 myotubes were pre-incubated with HMB 25 µM or Leu 10 mM for 48 hours. Then, dexamethasone 5 µM was added for another 48 hours. After treatment, cells were lysed with RIPA buffer (Sigma) supplemented with inhibitor protease cocktail (Sigma). Lysates were sonicated and protein concentration was measured using the Bio-Rad Protein Assay. Proteins (40 µg) were separated by SDS-PAGE and immunoblotted with anti-atrogin antibody.
# L6 Myoblasts were differentiated to myotubes for 3 days in 2% FBS. Cells were deprived of FBS for 12 hours and incubated with HMB (25 µM) or Leu (10 mM) and insulin (100 nmol/l) in the absence or presence of dexamethasone (5 µM) for 30 minutes. Cells were lysed in phosphorylation buffer and analyzed by Western blot using an anti-phospho PKB/Akt antibody (FIG. 3A), anti-phospho mTOR antibody (FIG. 3B), or anti-atrogin-1 antibody (FIG. 3C). As a loading control, results were normalized using an anti-total PKB/Akt antibody, anti-total mTOR antibody, or an anti-Histone H3 antibody (see FIGS. 3A-3C, respectively). […] The lower panels of each of FIGS. 3A-3C show densitometric quantification of: phospho-PKB/total PKB protein abundance (FIG. 3A); phospho-mTOR/total mTOR protein abundance (FIG. 3B); or atrogin-1 protein abundance using Histone H3 (FIG. 3C) as a reference control. Results are expressed as means ± SEM of four independent experiments.
# [3] = basal conditions, absence of dexamethasone, HMB 25 µM or Leu 10 mM
# [4] = pre-treatment HMB 25 µM or Leu 10 mM 48 hours, then dexamethasone 5 µM 12 hours
smiles,measurement,setting,value
"CC(C)(O)CC(=O)O [HMB, beta-hydroxy-beta-methylbutyrate]",inhibition at 25 µM,"L6 myotubes [1]; Rattus norvegicus, L6, read-out: decrease of proteolysis induced by dexamethasone",~60%
"CC(C)C[C@H](N)C(=O)O [Leu, Leucine]",phosphorylative state of mTOR,mTOR,did not have influence on the phosporylative state of Akt and mTOR
same,counteraction of the effects of dexamethasone on Ub-C promoter activity,UbC promoter,only HMB was able to significantly counteract the effects of dexamethasone on Ub-C promoter activity
same,phosphorylative state of Akt,PKB/Akt,did not have influence on the phosporylative state of Akt and mTOR
same,FOXO basal amount (nuclear FOXO3a),FOXO3a; [3],neither HMB nor Leu were able to significantly change FOXO basal activity or amount
same,FOXO3a nuclear translocation induced by dexamethasone,FOXO3a; [4],did not have any effect on the dexamethasone-increased FOXO expression and amount
same,prevention of the decrease in protein synthesis induced by dexamethasone,L6 myotubes [2],but not Leu
same,FOXO basal activity,FOXO; [3],neither HMB nor Leu were able to significantly change FOXO basal activity or amount
same,FOXO overexpression induced by dexamethasone (reporter activity),FOXO; [4],did not have any effect on the dexamethasone-increased FOXO expression and amount
same,ERK activation (phospho-ERK/total ERK),ERK1/2; atrophic conditions (dexamethasone 5 µM),induced an activation of ERK kinase either at basal or at atrophic conditions
same,ERK activation (phospho-ERK/total ERK),ERK1/2; basal conditions,induced an activation of ERK kinase either at basal or at atrophic conditions
same,decrease of proteolysis induced by dexamethasone,L6 myotubes [1],did not significantly affect glucocorticoid-induced protein degradation
C[C@@H]1C[C@H]2[C@@H]3CCC4=CC(=O)C=C[C@]4(C)[C@@]3(F)[C@@H](O)C[C@]2(C)[C@@]1(O)C(=O)CO [dexamethasone],fold induction at 5 µM,atrogin-1,> 4
